According to a compilation of properties of binary mixtures (doi:10.1016/j.jct.2010.03.017):

Assay: xn = mol fraction of the nth substance listed
Conditions: 101 kPa

CC[n+]1ccn(C)c1.N#C[N-]C#N + O
electrical conductivity [S/m]
Conditions	x2 = 0.2	x2 = 0.4	x2 = 0.6	x2 = 0.8
293.2 K	2.72	3.47	–	–
298.2 K	3.09	3.91	5.06	6.41
303.2 K	3.48	4.4	5.7	7.2
308.2 K	–	4.91	–	8
313.2 K	–	5.43	7.03	–
318.2 K	–	5.97	7.73	9.63
323.2 K	5.25	6.52	8.42	10.5
328.2 K	–	7.08	9.14	11.4
333.2 K	6.22	7.65	9.85	12.2
338.2 K	6.71	–	–	13.1
343.2 K	7.26	8.81	11.3	13.9
348.2 K	7.79	9.42	12	14.8
353.2 K	8.36	10	12.7	15.6

CCn1cc[n+](C)c1.COCCOCCOS(=O)(=O)[O-] + O
electrical conductivity [S/m]
Conditions	x2 = 0.2	x2 = 0.4	x2 = 0.6	x2 = 0.8
293.2 K	0.19	0.24	0.42	0.82
298.2 K	0.23	–	–	0.99
303.2 K	0.3	0.38	0.63	1.18
308.2 K	0.38	0.47	0.76	1.4
313.2 K	–	0.57	0.9	–
318.2 K	0.56	0.68	1.06	1.87
323.2 K	0.67	0.79	1.22	2.12
328.2 K	0.79	–	1.4	2.39
333.2 K	0.92	1.06	1.58	2.68
338.2 K	–	1.2	–	–
343.2 K	1.2	1.35	1.96	–
348.2 K	–	–	2.17	3.59
353.2 K	1.51	1.68	–	–
